# In PubChem BioAssay AID1963984 (Molecular Pharmacology Branch, DTP, NCI, 2024):
# Test system: 233499-124-R-J3-PDC spheroids with HUVEC/MSC, viability
# Experiment: Anticancer human tumor 233499-124-R-J3-PDC patient-derived colon adenocarcinoma cell line growth inhibition [PI3K]
# Conditions: for IC50: curve of first compound; for viability, T/C: stronger effect = lower value
# Outline: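 Complex 3D spheroids (cancer cells + endothelial HUVEC + mesenchymal stem cells); drug pairs of targeted agent x inavolisib/alpelisib/duvelisib/copanlisib; half-log series from ~Cmax, max 10 microM if Cmax unknown; endpoint viability.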
# [1] = second compound 0.0316 µM, first compound 0.0316 µM
# [2] = second compound 0.0316 µM, first compound 0.1 µM
# [3] = second compound 0.0316 µM, first compound 0.316 µM
# [4] = second compound 0.0316 µM, first compound 1 µM
# [5] = second compound 0.0316 µM, first compound 3.16 µM
# [6] = second compound 0.0316 µM, first compound 10 µM
# [7] = second compound 0.1 µM, first compound 0.0316 µM
# [8] = second compound 0.1 µM, first compound 0.1 µM
# [9] = second compound 0.1 µM, first compound 0.316 µM
# [10] = second compound 0.1 µM, first compound 1 µM
# [11] = second compound 0.1 µM, first compound 3.16 µM
# [12] = second compound 0.1 µM, first compound 10 µM
# [13] = second compound 0.316 µM, first compound 0.0316 µM
# [14] = second compound 0.316 µM, first compound 0.1 µM
# [15] = second compound 0.316 µM, first compound 0.316 µM
# [16] = second compound 0.316 µM, first compound 1 µM
# [17] = second compound 0.316 µM, first compound 3.16 µM
# [18] = second compound 0.316 µM, first compound 10 µM
# [19] = second compound 1 µM, first compound 0.0316 µM
# [20] = second compound 1 µM, first compound 0.1 µM
# [21] = second compound 1 µM, first compound 0.316 µM
# [22] = second compound 1 µM, first compound 1 µM
# [23] = second compound 1 µM, first compound 3.16 µM
# [24] = second compound 1 µM, first compound 10 µM
# [25] = second compound 3.16 µM, first compound 0.0316 µM
# [26] = second compound 3.16 µM, first compound 0.1 µM
# [27] = second compound 3.16 µM, first compound 0.316 µM
# [28] = second compound 3.16 µM, first compound 1 µM
# [29] = second compound 3.16 µM, first compound 3.16 µM
# [30] = second compound 3.16 µM, first compound 10 µM
# [31] = second compound 10 µM, first compound 0.0316 µM
# [32] = second compound 10 µM, first compound 0.1 µM
# [33] = second compound 10 µM, first compound 0.316 µM
# [34] = second compound 10 µM, first compound 1 µM
# [35] = second compound 10 µM, first compound 3.16 µM
# [36] = second compound 10 µM, first compound 10 µM
# 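Also: spheroids exposed to agents for seven days before readout.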
# 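For viability, T/C in this document: percent viability relative to DMSO vehicle control taken as 100%.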
compound,measurement,setting,value
C=CC(=O)N1CCN(c2nc(=O)n(-c3c(C)ccnc3C(C)C)c3nc(-c4c(O)cccc4F)c(F)cc23)C(C)C1 (centres undefined) + CC(Nc1ncnc2nc[nH]c12)c1cc2cccc(Cl)c2c(=O)n1-c1ccccc1,IC50,second compound 0.0316 µM,> 10 µM
same,IC50,second compound 0.1 µM,> 10 µM
same,IC50,second compound 0.316 µM,> 10 µM
same,IC50,second compound 1 µM,> 10 µM
same,IC50,second compound 3.16 µM,> 10 µM
same,IC50,second compound 10 µM,> 10 µM
same,"viability, T/C",[1],103%
same,"viability, T/C",[2],89.2%
same,"viability, T/C",[3],81.2%
same,"viability, T/C",[4],84.3%
same,"viability, T/C",[5],85.8%
same,"viability, T/C",[6],91.8%
same,"viability, T/C",[7],91%
same,"viability, T/C",[8],87.4%
same,"viability, T/C",[9],92%
same,"viability, T/C",[10],79.8%
same,"viability, T/C",[11],88.1%
same,"viability, T/C",[12],96.8%
same,"viability, T/C",[13],81.1%
same,"viability, T/C",[14],86.4%
same,"viability, T/C",[15],87.4%
same,"viability, T/C",[16],88.8%
same,"viability, T/C",[17],90%
same,"viability, T/C",[18],82.3%
same,"viability, T/C",[19],96.6%
same,"viability, T/C",[20],89.4%
same,"viability, T/C",[21],87.8%
same,"viability, T/C",[22],88.4%
same,"viability, T/C",[23],92.9%
same,"viability, T/C",[24],93.3%
same,"viability, T/C",[25],91.3%
same,"viability, T/C",[26],90.9%
same,"viability, T/C",[27],78.3%
same,"viability, T/C",[28],79.7%
same,"viability, T/C",[29],71.6%
same,"viability, T/C",[30],89%
same,"viability, T/C",[31],80.9%
same,"viability, T/C",[32],82.5%
same,"viability, T/C",[33],81.8%
same,"viability, T/C",[34],97.3%
same,"viability, T/C",[35],69.4%
same,"viability, T/C",[36],88.3%
CC(C)NCC(C(=O)N1CCN(c2ncnc3c2C(C)CC3O)CC1)c1ccc(Cl)cc1 (centres undefined) + CC(Nc1ncnc2nc[nH]c12)c1cc2cccc(Cl)c2c(=O)n1-c1ccccc1,IC50,second compound 0.0316 µM,> 10 µM
same,IC50,second compound 0.1 µM,> 10 µM
same,IC50,second compound 0.316 µM,> 10 µM
same,IC50,second compound 1 µM,> 10 µM
same,IC50,second compound 3.16 µM,> 10 µM
same,IC50,second compound 10 µM,> 10 µM
same,"viability, T/C",[1],86.1%
same,"viability, T/C",[2],100%
same,"viability, T/C",[3],94.8%
same,"viability, T/C",[4],94.8%
same,"viability, T/C",[5],77.1%
same,"viability, T/C",[6],74.5%
same,"viability, T/C",[7],93.3%
same,"viability, T/C",[8],96.7%
same,"viability, T/C",[9],77.6%
same,"viability, T/C",[10],83.8%
same,"viability, T/C",[11],110%
same,"viability, T/C",[12],87.4%
same,"viability, T/C",[13],95.7%
same,"viability, T/C",[14],102%
same,"viability, T/C",[15],95.8%
same,"viability, T/C",[16],87.8%
same,"viability, T/C",[17],86.9%
same,"viability, T/C",[18],71.9%
same,"viability, T/C",[19],91.1%
same,"viability, T/C",[20],88.3%
same,"viability, T/C",[21],88.1%
same,"viability, T/C",[22],106%
same,"viability, T/C",[23],82.1%
same,"viability, T/C",[24],65.2%
same,"viability, T/C",[25],91%
same,"viability, T/C",[26],93.6%
same,"viability, T/C",[27],96.9%
same,"viability, T/C",[28],85.7%
same,"viability, T/C",[29],81.1%
same,"viability, T/C",[30],77.5%
same,"viability, T/C",[31],78%
same,"viability, T/C",[32],89.9%
same,"viability, T/C",[33],87.4%
same,"viability, T/C",[34],68.8%
same,"viability, T/C",[35],99.5%
same,"viability, T/C",[36],88%
